According to patent publication US8609590B2, “Synergistic combination of flumetsulam with thiabendazole” (Dow Global Technologies LLC, priority 2010, dated 2013):

Legend:
Type in all cases: cell-based
[1] = test system: Gloeocapsa sp. and Oscillatoria sp. (Gs + Os); experiment: Algal efficacy testing, modified ASTM 5589, paint film; details: for % inhibition: at the total conc given for the same sample; for Total conc: end-point concentration in paint used for SI
Experimental: (§1) Sample preparation: A single or blend of biocides was post added into white acrylic latex paint free of biocides to give a maximum total active ingredient/s concentration tested. This paint was then diluted with a biocide free acrylic latex paint to give targeted concentrations for the testing. Depending on the type of biocide blends tested, the total biocides concentrations varies from 200 to 5000 ppm. After biocides addition or dilution, each sample was hand mixed for at least a minute until uniformity is achieved. Each of the paint samples as well as a control sample (containing no biocide) were used to prepare films on black plastic-vinyl chloride/acetate copolymer panels (LENETA, Mahwah, N.J.) using a 3 mil (0.0762 mm) bird bar applicator. The panels were thoroughly dried for at least 2 days avoiding direct exposure to sunlight. Square discs (0.5 inch; 1.27 cm^2) were cut out from each panel and were used as the substrate for fungal and algal efficacy tests. This sample size allowed for an agar border when the sample disc was placed into the well of the test plate. Each sample was tested in duplicate
(§2) The appropriate media (BOLD'S 3N for Chlorophytes, BG-11 for Cyanobacteria, and PDA for fungi) were used to support microbial growth. The test plates were maintained at room temp (25° C.-26° C.), in a cycled light-dark environment, for four weeks for algae. Plates for fungal challenge tests were maintained at 30 C for four weeks. At the end of the incubation period the samples were scored for percent area covered by visible microbial growth.
(§3) ASTM 5589 is a standard accelerated test method for determining resistance of various coatings (including paints) to algal defacement. To accommodate for high-throughput screening, this method was scaled down from petri plates to 6-well plates. A single coupon was placed with a pair of sterile forceps at the center of the agar plug (on top) with the painted surface facing upwards. Algal inoculums were prepared by mixing equal concentrations (1×10^6 cfu/ml) and equal volumes (depending on number of samples to be inoculated) of like growing organisms.
(§4) In Flumetsulam+various IT synergy study, three pool of mixed algae were prepared as the test inoculum, Gloeocapsa sp. and Oscillatoria sp. a mix of cyanobacteria grown on BG-11 media; Chlorella sp., Chlorella kessleri, and Nostoc commune are unicellular chlorphytes that were mixed and grown on Bold media; Trentepohlia aurea, Tretepohlia odorata, and Calotrix parientina are filamentous algae that were mixed and grown on Bold media.
(§5) In Diclosulam+various IT synergy study, only two pools of mixed algae were prepared; Gloeocapsa sp. and Oscillatoria sp. grown on BG-11 media and Chlorella sp., Chlorella kessleri, Nostoc commune, Trentepohlia aurea, Tretepohlia odorata, and Calotrix parientina grown on Bold media
(§6) Each well that contains a tested coupon was inoculated with 400 μl of organism mixture (1×10^6 cfu/ml) making sure that the whole surface (paint film as well as the agar surrounding it) was evenly covered. The plates were incubated at room temp (25° C.-26° C.) with cyclic exposure to light (OTT-Lite model # OTL4012P, 40 Watt, 26 KLumen) and dark phases, for a period of four weeks. The total area covered was evaluated at the end of each week according to percent area covered in 5% increments.
(§7) The SI is calculated based on F. C. Kull et.

[2] = test system: Aa + Tv + An + Pf + Ap + Ch; experiment: Fungal efficacy testing, modified ASTM 5590, paint film (Diclosulam study, single fungal pool); details: for % inhibition: at the total conc given for the same sample; for Total conc: end-point concentration in paint used for SI
Experimental: as §1, §2
ASTM 5590 is a standard accelerated test method for determining resistance of various coatings (including paints) to fungal defacement. To accommodate for high-throughput screening, this method was scaled down from petri plates to 6-well plates. To set up the test, an agar plug was placed at the bottom of each well of the sterile 6-well plate. A single coupon was placed with a pair of sterile forceps at the center of the agar plug (on top) with the painted surface facing upwards. Fungal inoculums were prepared by mixing equal concentrations (1×10^6 cfu/ml) and equal volumes (depending on number of samples to be tested) of like growing organisms. For Flumetsulam+various IT synergy study, three pools of mixed fungi were prepared as the test inoculum. Cladosporium herbarum was mixed with Aureobasidium pullulans; Aspergillus niger was mixed with Penicillium funiculosum and Alternaria alternata was mixed with Trichoderma viride. For Diclosulam+various IT synergy study, all above fungi were mixed as a single pool. […] The total percent area covered was evaluated and recorded at the end of each week after the 2nd week and recorded in increments of 5%.
(§8) The SI is calculated based on F. C. […]

[3] = test system: Cp + To + Ta + Cs + Ck + Nc; experiment: Algal efficacy testing, modified ASTM 5589, paint film (Diclosulam study); details: for % inhibition: at the total conc given for the same sample; for Total conc: end-point concentration in paint used for SI
Experimental: as §1, §2, §3, §5
Each well that contains a tested coupon was inoculated with 400 μl of organism mixture (1×10^6 cfu/ml) making sure that the whole surface (paint film as well as the agar surrounding it) was evenly covered. […] The total area covered was evaluated at the end of each week according to percent area covered in 5% increments.
as §8

[4] = test system: Alternaria alternata mixed with Trichoderma viride (AaTv); experiment: Fungal efficacy testing, modified ASTM 5590, paint film (Flumetsulam study); details: for % inhibition: at the total conc given for the same sample; for Total conc: end-point concentration in paint used for SI, four weeks, 30 C
Experimental: as §1, §2
(§9) ASTM 5590 is a standard accelerated test method for determining resistance of various coatings (including paints) to fungal defacement. To accommodate for high-throughput screening, this method was scaled down from petri plates to 6-well plates. To set up the test, an agar plug was placed at the bottom of each well of the sterile 6-well plate. A single coupon was placed with a pair of sterile forceps at the center of the agar plug (on top) with the painted surface facing upwards. Fungal inoculums were prepared by mixing equal concentrations (1×10^6 cfu/ml) and equal volumes (depending on number of samples to be tested) of like growing organisms. For Flumetsulam+various IT synergy study, three pools of mixed fungi were prepared as the test inoculum. Cladosporium herbarum was mixed with Aureobasidium pullulans; Aspergillus niger was mixed with Penicillium funiculosum and Alternaria alternata was mixed with Trichoderma viride. For Diclosulam+various IT synergy study, all above fungi were mixed as a single pool. Each well was inoculated with 400 μl of organism mixture (1×10^6 cfu/ml) making sure that the whole surface (paint film as well as the agar surrounding it) was evenly covered. The plates were incubated at 30° C. in presence of moisture, for a period of four weeks. The total percent area covered was evaluated and recorded at the end of each week after the 2nd week and recorded in increments of 5%.
as §7

[5] = test system: Aspergillus niger mixed with Penicillium funiculosum (AnPf); experiment: as above; details: for % inhibition: at the total conc given for the same sample; for Total conc: end-point concentration in paint used for SI, four weeks, 30 C
Experimental: as §1, §2, §9, §7

[6] = test system: Cladosporium herbarum mixed with Aureobasidium pullulans (ApCh); experiment: as above; details: for % inhibition: at the total conc given for the same sample; for Total conc: end-point concentration in paint used for SI, four weeks, 30 C
Experimental: as §1, §2, §9, §7

[7] = test system: Chlorella sp., Chlorella kessleri, and Nostoc commune (Cs + Ck + Nc); experiment: Algal efficacy testing, modified ASTM 5589, paint film (Flumetsulam study); details: for % inhibition: at the total conc given for the same sample; for Total conc: end-point concentration in paint used for SI, four weeks
Experimental: as §1, §2, §3, §4, §6, §7

[8] = test system: Trentepohlia aurea, Tretepohlia odorata, and Calotrix parientina (Cp + To + Ta); experiment: as above; details: for % inhibition: at the total conc given for the same sample; for Total conc: end-point concentration in paint used for SI, four weeks
Experimental: as §1, §2, §3, §4, §6, §7

Compound	% inhibition ([1]; Diclosulam study)	Total conc ([1]; Diclosulam study)	% inhibition [2]	Total conc [2]	% inhibition [3]	Total conc [3]	% inhibition [4]	Total conc [4]	% inhibition [5]	Total conc [5]	% inhibition [6]	Total conc [6]	% inhibition [7]	Total conc [7]	% inhibition [8]	Total conc [8]	% inhibition ([1]; Flumetsulam study)	Total conc ([1]; Flumetsulam study, four weeks)
CCOc1nc(F)cc2nc(S(=O)(=O)Nc3c(Cl)cccc3Cl)nn12 [Diclosulam, N-(2,6-dichlorophenyl)-5-ethoxy-7-fluoro[1,2,4]triazolo[1,5-c]pyrimidine-2-sulfonamide]	90%	875 ppm	0%	3500 ppm	100%	1750 ppm												
Cc1ccn2nc(S(=O)(=O)Nc3c(F)cccc3F)nc2n1 [Flumetsulam, N-(2,6-difluorophenyl)-5-methyl[1,2,4]triazolo[1,5-a]pyrimidine-2-sulfonamide]							0%	3500 ppm	90%	1750 ppm	50%	3500 ppm	100%	2625 ppm	75%	1750 ppm	90%	2625 ppm
c1ccc2[nH]c(-c3cscn3)nc2c1 [TBZ, thiabendazole]	85%	1250 ppm	60%	625 ppm	100%	1250 ppm	100%	625 ppm	100%	625 ppm	100%	625 ppm	100%	2500 ppm	90%	3750 ppm	85%	3750 ppm
